Key:
Assay in all cases: relative viability (nuclei count vs DMSO), 5 days (fraction); higher = more cells survive
Doxorubicin + Phenformin = compound: COc1cccc2c1C(=O)c1c(O)c3c(c(O)c1C2=O)C[C@@](O)(C(=O)CO)C[C@@H]3O[C@H]1C[C@H](N)[C@H](O)[C@H](C)O1 [Doxorubicin] + N=C(N)NC(=N)NCCc1ccccc1 [Phenformin] (partner 250 µM)
Method in brief: (§1)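 A single step with final 0.05% Triton X-100, 1% formaldehyde and 1 ug/ml Hoechst fixed the cells and stained nuclei 5 days after treatment. Lung cancer cell lines in 1536-well plates had been treated by pin tool the day after seeding with one drug alone or a fixed anchor-drug dose plus five library-drug doses (not always all listed) in √10 steps, and nuclei were counted on 4× images. Relative viability is the ratio of nuclei in treated wells to nuclei in vehicle wells, taken as the median of duplicate plates.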

[1] = compound: COc1cccc2c1C(=O)c1c(O)c3c(c(O)c1C2=O)C[C@@](O)(C(=O)CO)C[C@@H]3O[C@H]1C[C@H](N)[C@H](O)[C@H](C)O1 [Doxorubicin] + CC(=O)c1c(C)c2cnc(Nc3ccc(N4CCNCC4)cn3)nc2n(C2CCCC2)c1=O [Palbociclib] (partner 0.5 µM)
Method in brief: as §1

Doxorubicin + Luminespib = compound: COc1cccc2c1C(=O)c1c(O)c3c(c(O)c1C2=O)C[C@@](O)(C(=O)CO)C[C@@H]3O[C@H]1C[C@H](N)[C@H](O)[C@H](C)O1 [Doxorubicin] + CCNC(=O)c1noc(-c2cc(C(C)C)c(O)cc2O)c1-c1ccc(CN2CCOCC2)cc1 [Luminespib] (partner 0.01 µM)
Method in brief: as §1

BAY61-3606 + Lapatinib = compound: COC1=C(C=C(C=C1)C2=CC3=NC=CN3C(=N2)NC4=C(C=CC=N4)C(=O)N)OC [BAY61-3606] + CS(=O)(=O)CCNCc1ccc(-c2ccc3ncnc(Nc4ccc(OCc5cccc(F)c5)c(Cl)c4)c3c2)o1 [Lapatinib] (partner 2 µM)
Method in brief: as §1

Cell Line | relative viability (Doxorubicin + Phenformin; first compound 0.001 µM) | relative viability (Doxorubicin + Phenformin; first compound 0.003162 µM) | relative viability (Doxorubicin + Phenformin; first compound 0.01 µM) | relative viability (Doxorubicin + Phenformin; first compound 0.03162 µM) | relative viability (Doxorubicin + Phenformin; first compound 0.1 µM) | relative viability ([1]; first compound 0.001 µM) | relative viability ([1]; first compound 0.003162 µM) | relative viability ([1]; first compound 0.01 µM) | relative viability ([1]; first compound 0.03162 µM) | relative viability ([1]; first compound 0.1 µM) | relative viability (Doxorubicin + Luminespib; first compound 0.001 µM) | relative viability (Doxorubicin + Luminespib; first compound 0.003162 µM) | relative viability (Doxorubicin + Luminespib; first compound 0.01 µM) | relative viability (Doxorubicin + Luminespib; first compound 0.03162 µM) | relative viability (Doxorubicin + Luminespib; first compound 0.1 µM) | relative viability (BAY61-3606 + Lapatinib; first compound 0.02 µM) | relative viability (BAY61-3606 + Lapatinib; first compound 0.06325 µM) | relative viability (BAY61-3606 + Lapatinib; first compound 0.2 µM) | relative viability (BAY61-3606 + Lapatinib; first compound 0.6325 µM) | relative viability (BAY61-3606 + Lapatinib; first compound 2 µM)
NCI-H2023 | 0.431 | 0.398 | 0.321 | 0.126 | 0.0808 | 0.368 | 0.368 | 0.254 | 0.169 | 0.0764 | 0.765 | 0.677 | 0.243 | 0.0918 | 0.0632 | 0.917 | 0.805 | 0.869 | 1.45 | 0.591
HCC-15 | – | 0.518 | 0.355 | 0.148 | 0.135 | 0.743 | 0.733 | 0.522 | 0.681 | 0.488 | – | 0.304 | 0.312 | 0.231 | 0.222 | 0.891 | 0.921 | 0.851 | 0.875 | 0.792
COR-L23 | 0.422 | 0.501 | 0.43 | 0.224 | 0.131 | 0.327 | 0.274 | 0.236 | 0.181 | 0.106 | 0.678 | 0.637 | 0.567 | 0.163 | 0.147 | 0.872 | 1.08 | 0.826 | 1.04 | 0.834
HCC-827 | 0.429 | 0.409 | 0.401 | 0.401 | 0.408 | 0.465 | 0.458 | 0.484 | 0.465 | 0.593 | 0.555 | 0.379 | 0.602 | 0.573 | 0.566 | 0.2 | 0.2 | 0.206 | 0.226 | 0.217
NCI-H1355 | 0.423 | 0.488 | 0.465 | 0.449 | 0.416 | 0.423 | 0.432 | 0.388 | 0.38 | 0.392 | 0.697 | 0.829 | 0.686 | 0.605 | 0.732 | 1.07 | 0.907 | 0.926 | 0.948 | 0.764
RERF-LC-KJ | 0.397 | 0.443 | 0.372 | 0.325 | 0.271 | 1.07 | 1.15 | 0.921 | 0.542 | 0.653 | 1.32 | 1.21 | 0.838 | 0.323 | 0.308 | 0.935 | 0.741 | 0.859 | 0.814 | 0.709
NCI-H2126 | 0.556 | 0.531 | 0.475 | 0.299 | 0.273 | 0.349 | 0.347 | 0.371 | 0.345 | 0.386 | 0.643 | 0.88 | 0.817 | 0.394 | 0.286 | 0.83 | 0.724 | 0.745 | 0.794 | 0.745
BEN | 0.251 | 0.231 | 0.278 | 0.256 | 0.283 | 0.454 | 0.458 | 0.46 | 0.441 | 0.465 | 0.368 | 0.39 | 0.317 | 0.277 | 0.283 | 0.938 | 0.694 | 0.679 | 0.757 | 0.787
LCLC-97TM1 | 0.449 | 0.481 | 0.402 | 0.467 | 0.392 | 0.229 | 0.205 | 0.222 | 0.199 | 0.238 | 0.718 | 0.818 | 0.677 | 0.772 | 0.834 | 1.23 | – | 1.05 | 1.05 | 0.864
EKVX | 0.255 | 0.236 | 0.237 | 0.245 | 0.22 | 0.794 | 0.312 | 0.342 | 0.31 | 0.374 | 0.784 | 1.02 | 0.828 | 0.847 | 0.834 | 0.365 | 0.184 | 0.214 | 0.198 | 0.193
ABC-1 | 0.223 | 0.161 | 0.206 | 0.188 | 0.156 | 0.651 | 0.712 | 0.543 | 0.471 | 0.368 | 0.484 | 0.418 | 0.347 | 0.339 | 0.213 | 1.34 | 1.03 | 1.23 | 1.05 | 0.98
PC-14 | 0.421 | 0.629 | 0.709 | 0.284 | 0.213 | 0.532 | 0.501 | 0.312 | 0.194 | 0.0531 | 0.173 | 0.181 | 0.122 | 0.14 | 0.116 | 0.367 | 0.278 | 0.357 | 0.339 | 0.377
NCI-H1651 | 0.319 | 0.336 | 0.259 | 0.154 | 0.153 | 0.517 | 0.546 | 0.461 | 0.449 | 0.483 | 0.749 | 0.954 | 0.66 | 0.305 | 0.216 | 0.979 | 0.863 | 0.768 | 0.826 | 0.801
NCI-H2087 | – | 0.45 | 0.405 | 0.273 | 0.247 | 0.259 | 0.216 | 0.235 | 0.176 | 0.227 | – | 0.19 | 0.14 | 0.133 | 0.144 | 0.747 | 1.08 | 0.994 | 1.11 | 1
NCI-H1944 | 0.182 | 0.224 | 0.206 | 0.177 | 0.172 | 0.374 | 0.293 | 0.337 | 0.272 | 0.353 | 0.725 | 0.733 | 0.751 | 0.674 | 0.651 | 0.851 | 0.88 | 0.796 | 0.776 | 0.587
COR-L 105 | 0.57 | 0.533 | 0.434 | 0.295 | 0.286 | 0.436 | 0.387 | 0.367 | 0.37 | 0.327 | 0.678 | 0.754 | 0.691 | 0.595 | 0.363 | 0.355 | 0.378 | 0.418 | 0.417 | 0.351
NCI-H1437 | 0.317 | 0.269 | 0.242 | 0.256 | 0.158 | 0.315 | 0.327 | 0.294 | 0.295 | 0.26 | 1.01 | 1.17 | 1.12 | 0.832 | 0.553 | 0.892 | 0.915 | 0.729 | 0.905 | 0.683
H3255 | 0.371 | 0.363 | 0.333 | 0.374 | 0.311 | 0.306 | 0.315 | 0.306 | 0.348 | 0.263 | 0.982 | 0.84 | 0.841 | 0.75 | 0.829 | 0.257 | 0.203 | 0.274 | 0.249 | 0.229
NCI-H2009 | 0.483 | 0.482 | 0.481 | 0.414 | 0.275 | 0.238 | 0.207 | 0.179 | 0.0594 | 0.168 | 1.07 | 0.979 | 1.01 | 0.925 | 0.582 | 1 | 0.971 | 0.937 | 0.962 | 0.861
NCI-H1755 | 0.612 | 0.642 | 0.618 | 0.675 | 0.626 | 0.473 | 0.481 | 0.434 | 0.474 | 0.468 | 0.361 | 0.273 | 0.597 | 0.381 | 0.323 | 1.08 | 1.01 | 0.994 | 1.12 | 0.95
LU99A | 0.698 | 1.06 | 0.767 | 0.721 | 0.669 | 0.449 | 0.521 | 0.44 | 0.41 | 0.417 | 0.226 | 0.228 | 0.268 | 0.235 | 0.258 | 0.97 | 1.02 | 0.909 | 0.976 | 0.486
NCI-H2347 | 0.434 | 0.513 | 0.428 | 0.374 | 0.273 | 0.456 | 0.427 | 0.38 | 0.394 | 0.506 | 0.385 | 0.547 | 0.527 | 0.415 | 0.439 | 1.05 | 0.951 | 0.924 | 0.945 | 0.941
NCI-H650 | 0.543 | 0.419 | 0.509 | 0.424 | 0.373 | 0.371 | 0.362 | 0.325 | 0.293 | 0.326 | 0.694 | 0.75 | 0.78 | 0.565 | 0.627 | 1.16 | 0.948 | 0.783 | 0.884 | 0.801
NCI-H1666 | 0.604 | 0.504 | 0.481 | 0.368 | 0.337 | – | 0.646 | 0.626 | 0.565 | 0.568 | 1.01 | 0.868 | 0.735 | 0.442 | 0.411 | 0.668 | – | 0.523 | 0.649 | 0.445
NCI-H1792 | – | 0.299 | 0.262 | 0.337 | 0.19 | – | 0.668 | 0.651 | 0.542 | 0.558 | – | 0.467 | 0.43 | 0.527 | 0.328 | 0.904 | 0.951 | 0.949 | 0.902 | 0.95
PC-3 [JPC-3] | 0.448 | 0.478 | 0.515 | 0.468 | 0.471 | 0.526 | 0.585 | 0.544 | 0.518 | 0.522 | 0.661 | 0.748 | 0.683 | 0.714 | 0.615 | 0.468 | 0.482 | 0.478 | 0.436 | 0.471
HARA | 0.424 | 0.616 | 0.444 | 0.409 | 0.439 | 0.234 | 0.256 | 0.259 | 0.236 | 0.263 | 0.644 | 1.1 | 0.696 | 0.641 | 0.325 | 0.798 | 0.643 | 0.721 | 0.862 | 0.735
